Laboratory results as given in US9260731B2 (RELIANCE INDUSTRIES LIMITED, priority 2012, dated 2016).
Where two headings read alike, the source gives them in different places.

Tests used:
[1] = test system: wild type C. acetobutylicum; test: Rhodamine 6G accumulation on AT agar, wild type; format: cell-based, Clostridium acetobutylicum; details: 100 μg/ml in AT agar, 24 h, 37° C., anaerobic
Description: (§1) Cells of overnight culture of wild type and solvent-tolerant mutant C. acetobutylicum MTCC 5587 were spotted on AT agar with or without rhodamine 6G (100 μg/ml) and incubated at 37° C. in anaerobic chamber for 24 h. Accumulation of rhodamine 6G was monitored under UV light (Lazaroaie, 2009).

[2] = test system: solvent-tolerant mutant C. acetobutylicum MTCC 5587; test: Rhodamine 6G accumulation on AT agar, solvent-tolerant mutant; format: cell-based, Clostridium acetobutylicum; details: 100 μg/ml in AT agar, 24 h, 37° C., anaerobic
Description: as §1

[3] = test system: C. acetobutylicum ATCC 4259 (wild type strain)
Text: (§2) The tolerance and growth profile of the mutant was monitored with respect to time.

[4] = test system: C. acetobutylicum MTCC 5587 (mutant strain B90)
Description: Chemical mutagenesis was carried out using MNNG (1-methyl-3-nitro-1-nitrosoguanidine). Alternate thioglycolate (AT) media was inoculated with C. acetobutylicum ATCC 4259 from the stab culture. After 12 h growth at 37° C., the culture was harvested and centrifuged. The cell pellet was washed with 2 ml citrate buffer (pH 5.8) and 100 μl of MNNG (stock solution 100 mg/ml prepared in sterilized distilled water) was added to the cells, incubated at 30° C. for 70 min. The mutagenised cell mass was centrifuged and the supernatant discarded appropriately in biohazard containers. The cells were washed twice with AT broth and resuspended in 1 ml AT broth.
as §2

Row | Molecule | accumulation of rhodamine 6G (colony colour under UV light) [1] | accumulation of rhodamine 6G intracellularly (colony colour under UV light) [2] | butanol tolerated in the medium, beyond which there was cessation of growth [3] | growth in presence of butanol ([4]; 3.8% butanol) | growth in presence of butanol ([4]; 4% butanol) | growth in presence of butanol ([4]; at the highest tolerated levels of butanol (up to […] v/v)) | butanol tolerated in the AT medium ([4]; mutant strain, AT medium)
1 | CCN=c1cc2oc3cc(NCC)c(C)cc3c(-c3ccccc3C(=O)OCC)c-2cc1C.Cl [rhodamine 6G] | comparatively lower dye accumulation | high accumulation | – | – | – | – | –
2 | n-butanol | – | – | up to 1.5% | no growth | no growth | extremely slow and feeble | up to 3.5 % (v/v)
